# Results from patent US20190014776A1 (priority 2017, published 2019).
# Assay type: physicochemical
# Details: relative to tank mix of CLARITY and CONTROLMAX; dicamba 1.2 wt. % a.e., glyphosate 2.4 wt. % a.e.; 35° C., 40% RH, 24 hours
# Method: The dicamba volatility from each composition was measured by the procedure described in “A Method to Determine the Relative Volatility of Auxin Herbicide Formulations” in ASTM publication STP1587 entitled “Pesticide Formulation and Delivery Systems: 35th Volume, Pesticide Formulations, Adjuvants, and Spray Characterization in 2014, published 2016, which is incorporated herein by reference.
# Humidomes obtained from Hummert International (Part Nos 14-3850-2 for humidomes and 11-3050-1 for 1020 flat tray) were modified by cutting a 2.2 cm diameter hole on one end approximately 5 cm from the top to allow for insertion of a glass air sampling tube (22 mm OD) containing a polyurethane foam (PUF) filter. The sampling tube was secured with a VITON o-ring on each side of the humidome wall. The air sampling tube external to the humidome was fitted with tubing that was connected to a vacuum manifold immediately prior to sampling.
# The flat tray beneath the humidome was filled with 1 liter of sifted dry or wet 50/50 soil (50% Redi-Earth and 50% US 10 Field Soil) to a depth of about 1 cm. […]
# The flat tray bottom containing the auxin herbicide formulation on soil was covered with the humidome lid and the lid was secured with clamps. […] The PUF filter was extracted with 20 mL of methanol and the solution was analyzed for the auxin herbicide concentration using LC-MS methods known in the art.
structure (smiles),measurement,value
"CCCC[N+](CCCC)(CCCC)CCCC.COc1c(Cl)ccc(Cl)c1C(=O)[O-] [TBA Dicamba, tetrabutylammonium (TBA) dicamba]",Volatility Reduction,99.5%
